Experimental data as given in article PMC11997307, “Rat Sarcoma (RAS)-Protein-Targeting Synthetic Cell-Penetrating Peptide as an Anticancer Biomaterial” (Biomaterials Research, 2025).

Columns and labels:
[1] = tested on: MDA-MB-231 cell-derived tumors; assay: Mouse xenograft tumor model; format: in vivo; conditions: BALB/c nude mice, MDA-MB-231 xenograft
Experimental: Female BALB/c nude mice (aged 5 to 6 weeks) were utilized in these studies to establish breast cancer xenograft models. These mice were obtained from Orient Bio, Inc. (Seongnam, Republic of Korea) and maintained in the Division of Laboratory Animal Resources animal facility throughout the experimental period. The selection, management, and experimental protocols, as well as the preparation of the animals, were conducted in accordance with the guidelines approved by the Institutional Animal Care and Use Committee of Seoul National University. All experiments adhered to the animal protocol approved by the Institutional Animal Care and Use Committee at Seoul National University (protocol number: SNU-171026-1-5). MDA-MB-231 cells were cultured until they reached 80% to 90% confluency and then harvested and prepared as suspensions (3 × 10^6 cells/100 μl in PBS) mixed with Matrigel. These cell suspensions were injected into the right hind flanks of nude mice (n = 8). […] The control mice received PBS injections. The mice were weighed, and their tumor volumes were measured 3 times per week using Vernier calipers, starting on the first day of treatment. The tumor volume was calculated using the formula tumor volume = A × B^2 × 0.52, where A represents the longest tumor diameter and B represents the shortest diameter. After 6 weeks, the mice were euthanized in a sealed chamber with CO2 gas for 5 to 10 min, and their solid tumors were harvested and fixed in 4% paraformaldehyde for subsequent analysis via immunohistochemistry (IHC).
The tissues were fixed in 4% formalin before being embedded in paraffin. Sections with a thickness of 4 μm were deparaffinized with xylene and then rehydrated with a graded series of ethanol solutions, ranging from 95% to 100%. […] Antibody binding was detected through incubation with EnVision FLEX/horseradish peroxidase (Dako) for 30 min. […] The intensity and distribution of Ki-67-specific immunostaining were assessed using a Leica DM6B digital light fluorescence microscope following hematoxylin counterstaining.

integrin alpha 3 = biological target: T1, integrin alpha 3 (Homo sapiens, UniProt P26006); assay: SPR (Biacore) binding of RBP to immobilized integrin alpha 3 (selectivity control); conditions: CM5 chip, integrin alpha 3 immobilized, 11 concentrations of RBP
T1 sequence (P26006 33-1051): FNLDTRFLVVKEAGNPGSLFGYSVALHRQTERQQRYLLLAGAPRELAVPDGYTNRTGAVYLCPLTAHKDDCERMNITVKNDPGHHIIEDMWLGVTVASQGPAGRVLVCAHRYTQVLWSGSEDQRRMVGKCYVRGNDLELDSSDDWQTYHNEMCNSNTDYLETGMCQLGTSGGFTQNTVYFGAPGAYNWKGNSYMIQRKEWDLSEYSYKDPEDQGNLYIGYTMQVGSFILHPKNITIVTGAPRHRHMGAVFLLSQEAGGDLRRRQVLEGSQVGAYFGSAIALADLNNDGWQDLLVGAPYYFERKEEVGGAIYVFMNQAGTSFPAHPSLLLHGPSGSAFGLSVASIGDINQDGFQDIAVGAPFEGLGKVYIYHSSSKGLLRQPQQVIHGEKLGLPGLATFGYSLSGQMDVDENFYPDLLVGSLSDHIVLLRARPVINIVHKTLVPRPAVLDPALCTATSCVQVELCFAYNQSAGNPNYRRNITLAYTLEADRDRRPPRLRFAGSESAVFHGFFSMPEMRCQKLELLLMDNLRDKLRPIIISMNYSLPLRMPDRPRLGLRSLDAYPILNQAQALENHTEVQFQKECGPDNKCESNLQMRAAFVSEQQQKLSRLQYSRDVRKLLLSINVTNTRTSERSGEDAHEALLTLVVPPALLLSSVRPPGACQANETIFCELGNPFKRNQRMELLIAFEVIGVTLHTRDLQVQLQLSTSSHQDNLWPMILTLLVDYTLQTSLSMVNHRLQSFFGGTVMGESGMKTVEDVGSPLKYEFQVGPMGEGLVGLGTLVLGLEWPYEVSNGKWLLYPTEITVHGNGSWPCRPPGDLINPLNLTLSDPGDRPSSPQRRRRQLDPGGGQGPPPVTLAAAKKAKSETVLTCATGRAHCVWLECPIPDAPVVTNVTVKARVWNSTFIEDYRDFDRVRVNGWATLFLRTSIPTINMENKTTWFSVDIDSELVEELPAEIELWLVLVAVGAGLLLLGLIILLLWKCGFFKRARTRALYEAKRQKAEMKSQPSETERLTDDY
Experimental: N-Hydroxysuccinimide (NHS) and EDC were used as cross-linkers. The remaining unreacted active groups on the dextran surface were blocked with ethanolamine. The running buffer consisted of 150 mM NaCl, 5 mM EDTA, and 0.05% Tween 20 in 10 mM Hepes, pH 7.4. A CM5 chip without immobilized protein was used as the blank surface in the Biacore assay (Biacore T100, GE Healthcare Bio-Sciences AB, Uppsala, Sweden). […] The dissociation phase was conducted for 5 min.

MCF-7 cells = assay: Cell viability, CCK-8 assay, MCF-7; format: cell-based, human; conditions: MCF-7 (KRAS wild-type), CCK-8, 0-1,000 μM RBP, 24, 48 or 72 h, triplicate
Experimental: The viability of the cells was determined via Cell Counting Kit-8 (CCK-8; Dojindo Laboratories, Kumamoto, Japan) assay. The cells were plated in 96-well culture plates at a density of 5 × 10^3 cells per well and incubated for 24 h at 37 °C in a humidified incubator with 5% CO2. […] After incubation, the medium was replaced with fresh medium containing 10% (v/v) CCK-8 reagent, and the cells were incubated for 2 h. Absorbance was measured at 450 nm using a microplate reader. All experiments were performed in triplicate.

[2] = 10 mg/kg intraperitoneal, 6 weeks

Question: Which “tumor growth vs not-treated group” value ([1]; 10 mg/kg intraperitoneal 3 times per week for 6 weeks, n = 8, P < 0.05) does the source give for C[C@@H](O)[C@H](NC(=O)[C@H](CO)NC(=O)[C@H](CS)NC(=O)[C@H](CCCCN)NC(=O)CN)C(=O)N[C@@H](CCCNC(=N)N)C(=O)NCC(=O)N[C@@H](CCCNC(=N)N)C(=O)N[C@@H](CCCCN)C(=O)N[C@@H](CS)C(=O)N[C@@H](CS)C(=O)N[C@@H](CCCNC(=N)N)C(=O)N[C@@H](CCCNC(=N)N)C(=O)N[C@@H](CCCCN)C(=O)N[C@@H](CCCCN)C(N)=O [RBP] here?
Answer: Its value is “significant reduction”.

Question: What about the “Ki-67 expression in tumor sections (IHC)” value [1, 2] of the same compound?
Answer: The value was “decreased Ki-67 expression”.

Question: What about the “immune cell infiltration in tumors (H&E)” value [1, 2] of the same compound?
Answer: The value was “increased immune cell infiltration”.

Question: And the “binding to unrelated receptor integrin alpha 3” value (integrin alpha 3)?
Answer: Its value is “did not bind”.

Question: And the “decrease in the percentage of viable cells” value (MCF-7 cells)?
Answer: Its value is “not significant”.
